Reference: US20160075682A1, “INHIBITORS OF NICOTINAMIDE PHOSPHORIBOSYLTRANSFERASE, COMPOSITIONS, PRODUCTS AND USES THEREOF” (UNIVERSITÀ DEGLI STUDI DEL PIEMONTE ORIENTALE "AMEDEO …, priority 2013, published 2016)

Columns and labels:
NAMPT = biological target: T1, NAMPT (Homo sapiens, UniProt P43490); test: Direct inhibition of NAMPT enzymatic activity (Cyclex NAMPT colorimetric Assay Kit); type: biochemical; details: as assessed with a cycling assay
T1 construct: endogenous in cells; host or cells: SH-SY5Y and HeLa
T1 sequence (P43490 whole entry): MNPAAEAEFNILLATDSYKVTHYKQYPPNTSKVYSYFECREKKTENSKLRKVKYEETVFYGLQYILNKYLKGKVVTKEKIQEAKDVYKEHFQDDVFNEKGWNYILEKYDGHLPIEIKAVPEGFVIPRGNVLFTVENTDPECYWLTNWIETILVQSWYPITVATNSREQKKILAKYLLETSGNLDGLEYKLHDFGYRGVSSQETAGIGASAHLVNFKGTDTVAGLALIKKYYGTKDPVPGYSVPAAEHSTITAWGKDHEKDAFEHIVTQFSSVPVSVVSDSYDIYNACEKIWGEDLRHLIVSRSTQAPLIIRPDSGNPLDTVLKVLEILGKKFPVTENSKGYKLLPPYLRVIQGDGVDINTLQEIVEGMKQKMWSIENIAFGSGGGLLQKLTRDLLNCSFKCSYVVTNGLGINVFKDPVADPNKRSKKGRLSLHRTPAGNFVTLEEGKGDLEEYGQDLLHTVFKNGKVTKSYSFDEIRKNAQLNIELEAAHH
Method: Determination of the direct activity of compounds on NAMPT was performed using a commercial kit, Cyclex NAMPT colorimetric Assay Kit.

SH-SY5Y, HeLa = test: MTT cell proliferation assay and trypan blue count (cell viability); type: cell-based; details: cells treated for 48 and 72 hours; read-out: IC50 values (inhibition of cellular proliferation, MTT assay and trypan blue assay)
Method: Cell based assays were used to evaluate the possible cytotoxic effects of some compounds. To measure cytotoxic effects two different methods were used, a MTT cell proliferation assay and trypan blue count.
The Trypan blue assay is used to determine the number of viable cells present in a cell suspension. […] Briefly, 8×10^5 cells (SH-SY5Y, HeLa; obtained from ATCC, LGC standards, Sesto San Giovanni) were seeded in 24-well plates and treated for 48 and 72 hours. After the treatments, cells were stained with trypan blue and counted.
To analyze cell viability was used the colorimetric 3-(4,5-dimethylthiazol-2-yl)-2,5-diphenyltetrazolium bromide (MTT) method. The assay is based on the cleavage of the yellow tetrazolium salt MTT to purple formazan crystals by metabolic active cells. Since reduction of MTT can only occur in metabolically active cells, the level of activity is a measure of the viability of cells and conversely the cytotoxic effects of various treatments. Briefly, 8×10^5 cells (SH-SY5Y, code number CRL-2266; and HeLa, code number CCL-2) were seeded in 24-well plates and treated for 48 and 72 hours. Compounds were dissolved in DMSO and were added to the cells to give a final DMSO concentration no greater than 0.5%. Cells were washed once in Locke buffer and 300 μl of MTT (250 μg/ml in Locke buffer) were added before returning the cells to the incubator for 1 h to allow the formation of the purple formazan crystals. After 1 h, 600 μl of isopropanol/0.1 M HCl were added to each well, and the absorbance was read at 570 nm in a plate reader (Victor3V, PerkinElmer Life Sciences). For some compounds a dose response curve and IC50 for the effects on cell viability and proliferation were calculated. Cell lines used were originally purchased from ATCC (LGC standards. Sesto San Giovanni).
To evaluate the ability of each compound to inhibit cellular proliferation, cells were seeded in 24-well plates and treated for 48 and 72 hours. After the treatments the MTT assay and trypan blue assay were performed.

[1] = system: Dextran-induced colitis in C57/BJ6 mice; test: Experimental colitis induced by dextran sulfate sodium (DSS); type: in vivo; details: i.p., doses of between 20 mg/Kg and 500 mg/Kg
Method: Animal work was authorized by the local ethical committee for animal studies (Università del Piemonte Orientale). Colitis was induced in C57/BJ6 mice (Harlan Nossan, Milan, Italy) by addition of DSS (2%) to their daily drinking water for 7 days followed by a 3-day recovery period without DSS. The severity of colitis was assessed using these set of criteria: (1) clinical index (daily changes in body weight; diarrhea and rectal bleeding); (2) macroscopic evidence of colitis (shortening of colon length). On day 10 of the experiment, animals were sacrificed. Treatments were performed with either solvent alone or drugs once a day for the entire duration of the experiments from day 1 to day 7. The colon lengths were measured and colon tissues were harvested for biochemical measurements, histopathological assessment and scoring. (Tang Y, Preuss F, Turek F W, Jakate S, Keshavarzian A. Sleep deprivation worsens inflammation and delays recovery in a mouse model of colitis. Sleep Med. 2009 June; 10(6):597-603).
(§1) As previously described, the colon of DNBS- or dextran treated animals was removed after the induction of colitis. Compounds of formula (I) were administered intraperitoneally (i.p.).

[2] = system: DNBS-induced colitis in BALB/c mice; test: Experimental colitis induced by DNBS; type: in vivo; details: i.p.
Method: Animal work was authorized by the local ethical committee for animal studies (Università del Piemonte Orientale). BALB/c mice (Harlan Nossan, Milan, Italy) were anesthetized by enflurane. Dinitrobenzene sulfonic acid (DNBS; 4 mg in 100 μl of 50% ethanol) was injected into the rectum through a catheter inserted 4.5 cm proximally to the anus. Carrier alone (100 μl of 50% ethanol) was administered in control experiments. Thereafter, the animals were kept for 15 minutes in a Trendelenburg position to avoid reflux. Treatment with either solvent alone or drugs was done immediately after induction and thereafter twice a day. […] On Day 4, the animals were weighed and anaesthetized with chloral hydrate, and the abdomen was opened by a midline incision. The colon was removed, freed from surrounding tissues, opened along the antimesenteric border, rinsed, weighed, and processed for histology, biochemical measurements and immunohistochemistry. Colon damage (macroscopic damage score) was evaluated and scored by two independent observers according to the following criteria: 0, no damage; 1, localized hyperemia without ulcers; 2, linear ulcers with no significant inflammation; 3, linear ulcers with inflammation at one site; 4, two or more major sites of inflammation and ulceration extending >1 cm along the length of the colon; and 5-8, one point is added for each centimeter of ulceration beyond an initial 2 cm. Biochemical and histological analysis also included TNFalpha measurements and myeloperoxidase (MPO) measurements by ELISA assay, and VEGF, NAMPT, COX-2 measurements by immunoblotting. (Esposito E, Mazzon E, Paterniti I, Dal Toso R, Pressi G, Caminiti R, Cuzzocrea S. PPAR-alpha Contributes to the Anti-Inflammatory Activity of Verbascoside in a Model of Inflammatory Bowel Disease in Mice. PPAR Res. 2010; 2010:917312).
as §1

[3] = DNBS-treated mice, between 20 mg/Kg and 500 mg/Kg, compared to untreated colitis mice

- inhibition of the enzymatic activity of NAMPT (NAMPT): able to inhibit
- IC50 (SH-SY5Y, HeLa): < 300 nM
SMILES: O=C(O)c1ccccc1-c1ccccc1C(=O)NCCCCCCCn1cc(-c2cccnc2)nn1 [2′-((7-(4-(pyridin-3-yl)-1H-1,2,3-triazol-1-yl)heptyl)carbamoyl)-[1,1′-biphenyl]-2-carboxylic acid]
- protection from Dextran-induced colitis as assessed by the macroscopic damage score [1]: able to protect
- MPO in the colon [2, 3]: able to reduce
- NAMPT in the colon [2, 3]: able to reduce
- TNFalpha in the colon [2, 3]: able to reduce
- VEGF in the colon [2, 3]: able to reduce
- protection from DNBS-induced colitis as assessed by the macroscopic damage score ([2]; doses of between 20 mg/Kg and 500 mg/Kg): able to protect
